Reference: article PMC4503722, “Novel Phenotypic Outcomes Identified for a Public Collection of Approved Drugs from a Publicly Accessible Panel of Assays” (PLoS ONE, 2015)
Like-named read-outs stand apart in the source and are kept apart here.

Columns and labels:
INS-1E cells [1] = experiment: cells; assay type: cell-based, rat
[2] = system: tonic K+ channel activity in INS-1E cells; experiment: cells; assay type: cell-based, rat; conditions: for IC50: Rattus norvegicus, INS-1E, read-out: K+ channel assay IC50
HeLa cells = experiment: cells; assay type: cell-based; conditions: for EC50: Homo sapiens, HeLa, read-out: CellCycle G2/M
INS-1E cells [3] = assay type: cell-based, rat
SW480 = experiment: cells; assay type: cell-based; conditions: Homo sapiens
NCI-H716 cells = experiment: cells; assay type: cell-based, Human
[4] = system: nuclear β-catenin in C2C12 cells; experiment: cells; assay type: cell-based; conditions: Mus musculus
HCT116 = experiment: cells; assay type: cell-based; conditions: Homo sapiens, HCT-116, 72 h
DLD-1 = experiment: cells; assay type: cell-based; conditions: Homo sapiens, DLD-1, 72 h, read-out: DLD-1 viab. IC50
[5] = system: endothelial tube formation in co-cultures of ECFCs and ADSCs treated with VEGF; experiment: cells; assay type: cell-based, human; conditions: Homo sapiens, read-out: Anti-Angio IC50
[6] = system: HCT116 cells treated with a GSK3β inhibitor; experiment: cells; assay type: cell-based; conditions: Homo sapiens
[7] = assay number 10, 0.1 mM glucose
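Wherever 5mMGluc INS1E SecretionMod IC50/EC50 is given: secreted insulin quantified by homogeneous immunoassay.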

Row | Compound | 5mMGluc_INS1E SecretionMod IC50/EC50 (INS-1E cells [1]; assay number 8; 5 mM glucose) | 0.1mMGluc_INS1E FluxOR IC50/EC50 [2, 7] | Hela CellCycMod PI 2N IC50/EC50 (HeLa cells; assay number 14, 2N) | Hela CellCycMod PI S Phase IC50/EC50 (HeLa cells; assay number 15, S phase) | Hela CellCycMod PI 4N IC50/EC50 (HeLa cells; assay number 16, 4N) | Hela CellCycMod PI MI IC50/EC50 (HeLa cells; assay number 17, MI) | Hela CellCycMod PI Cell Number IC50/EC50 (HeLa cells; assay number 18, cell number) | 0.1mMGluc_INS1E SecretionMod Act IC50/EC50 (INS-1E cells [3]; assay number 9, 0.1 mM glucose) | other results
1 | CCCNCC(O)COc1ccccc1C(=O)CCc1ccccc1 (centres unmarked) [NCGC00015819-15] | 4.919 µM | 5.346 µM | > 10 µM | > 10 µM | > 10 µM | > 10 µM | > 10 µM | > 33.33 µM | –
2 | CC(CC1c2ccccc2CCc2ccccc21)CN(C)C (centres unmarked) [NCGC00274277-01] | – | – | – | – | – | – | – | – | 5mMGluc_INS1E SecretionMod IC50/EC50 (INS-1E cells [1]): 3.6382 µM; 0.1mMGluc_INS1E FluxOR IC50/EC50 [2]: 19.9984 µM; Hela CellCycMod PI 2N IC50/EC50 (HeLa cells): > 10 µM; Hela CellCycMod PI 4N IC50/EC50 (HeLa cells): > 10 µM; Hela CellCycMod PI Cell Number IC50/EC50 (HeLa cells): > 10 µM; Hela CellCycMod PI MI IC50/EC50 (HeLa cells): > 10 µM; Hela CellCycMod PI S Phase IC50/EC50 (HeLa cells): > 10 µM; 0.1mMGluc_INS1E SecretionMod Act IC50/EC50 (INS-1E cells [3]): > 33.33 µM
3 | Cc1ccc(CCn2c3c(c4cc(Cl)ccc42)CN(C)CC3)cn1 [NCGC00253726-01] | 4.201 µM | 39.9057 µM | > 10 µM | > 10 µM | > 10 µM | > 10 µM | > 10 µM | > 33.33 µM | –
4 | CCN(CC)CCOCCOC(=O)C1(c2ccccc2)CCCC1 [NCGC00024595-08] | 7.687 µM | 4.656 µM | – | – | – | – | – | > 33.33 µM | –
5 | CN(C)C/C=C(/c1ccc(Br)cc1)c1cccnc1.Cl.Cl.O [NCGC00025286-04] | 8.361 µM | 27.874 µM | – | – | – | – | – | > 33.33 µM | –
6 | CN(C)CCC=C1c2ccccc2CCc2ccccc21 [amitriptyline, reference compound] | – | – | – | – | – | – | – | – | IC50 (SW480; SW480, 72 h, read-out: SW480 viab. IC50): 10.1 µM; IC50 (SW480; SW480, read-out: Basal_Viability ATP SW480): 10.1 µM; EC50 (NCI-H716 cells; Homo sapiens, NCI-H716, read-out: GLP1 sec. EC50): > 10 µM; EC50 ([4]; C2C12, read-out: Wnt pot. EC50): > 10 µM; EC50 (INS-1E cells [1]; Rattus norvegicus, INS-1E, read-out: Ins. sec. EC50): 3 µM; EC50 (INS-1E cells [1]; Rattus norvegicus, INS-1E, read-out: Insulin Secretion): 3 µM; IC50 [2]: 6.2 µM; IC50 (HCT116; read-out: HCT-116 viab. IC50): > 20 µM; EC50 (HeLa cells): > 10 µM; IC50 (DLD-1): > 20 µM; IC50 [5]: > 10 µM; IC50 ([6]; HCT-116, 72 h, read-out: HCT-116 (GSK3β) viab. IC50): > 20 µM
7 | Cc1ccc(S(=O)(=O)NC(=O)NN2CC3CCCC3C2)cc1 (centres unmarked) [NCGC00095107-09] | 1.834 µM | 0.6403 µM | > 10 µM | > 10 µM | > 10 µM | > 10 µM | > 10 µM | > 33.33 µM | –
8 | CCN(CC)CCCN(c1ccccc1)C1Cc2ccccc2C1.Cl [NCGC00167576-02] | 7.1279 µM | 14.9742 µM | – | – | – | – | – | > 33.33 µM | –
9 | CCN(CCCCOC(=O)c1ccc(OC)c(OC)c1)C(C)Cc1ccc(OC)cc1 (centres unmarked) [mebeverine, reference compound] | – | – | – | – | – | – | – | – | IC50 (SW480; SW480, 72 h, Table 2, 72 h, Cell TiterGlo, non-adherent, 20 coded, read-out: SW480 viab. IC50): > 20 µM; EC50 (NCI-H716 cells; Homo sapiens, NCI-H716; read-out: GLP1 sec. EC50): > 10 µM; EC50 ([4]; C2C12, Table 2, C2C12, […], 20 / 20.1 coded, read-out: Wnt pot. EC50): > 10 µM; EC50 (INS-1E cells [1]; Rattus norvegicus, INS-1E; read-out: Ins. sec. EC50): 2 µM; EC50 (INS-1E cells [1]; Rattus norvegicus; IC50 / EC50; INS-1E; read-out: Insulin Secretion): 1.95 µM; IC50 ([2]; 0.1 mM glucose, thallium flux): 1.7 µM; IC50 (HCT116; read-out: HCT-116 viab. IC50, Table 2, basal, 72 h, Cell TiterGlo, non-adherent, 20 coded): > 20 µM; G2/M IC50 / EC50 (HeLa cells): 20 (values shown as 20 indicate that the compound was tested in concentration-response and showed no response at the highest concentration tested (e.g. IC50 > 20 μM)); EC50 (HeLa cells; IC50 / EC50): > 10 µM; IC50 (DLD-1; Table 2, 72 h, Cell TiterGlo, non-adherent, 20 coded): > 20 µM; IC50 ([5]; Table 2, primary assay tube area, 20 = no response in concentration-response, 20.1 = inactive in single concentration testing): > 10 µM; IC50 ([6]; HCT-116, read-out: HCT-116 (GSK3β) viab. IC50, Table 2, GSK3β inhibitor LY2090314 20 nM, 72 h, Cell TiterGlo, 20 coded): > 20 µM
10 | CCC(=O)c1ccc2c(c1)N(CCCN(C)C)c1ccccc1S2.Cl [NCGC00015838-06] | 10.7311 µM | 25.7434 µM | – | – | – | – | – | > 33.33 µM | –
